# Legend:
# [1] = cited from earlier work; for food effect: previous studies
# P-gp = conditions: cited from earlier work
# [2] = tested on: uridine diphosphate glucuronosyltransferase 1A9; conditions: cited from earlier work
# [3] = Randomized, open-label, single-dose crossover pharmacokinetic study; plasma concentrations by LC-MS/MS, non-compartmental analysis; format: in vivo, human; conditions: for Intra-Participant CV% of AUCinf / Intra-Participant CV% of AUClast / Intra-Participant CV% of Cmax: IC vs. FCDP crossover; for AUC(0-inf) / AUC(0-t) / Cmax / Tmax / half-life: male, human, plasma
# Description: Sixty-three healthy male volunteers (age, 19–45 years; body weight > 50 kg) agreed to participate in the study and signed a written informed consent form. Only male participants were recruited to avoid the potential risk of pregnancy. The participants were considered healthy after a detailed physical examination by physicians involving 12-lead electrocardiographs (ECG), vital sign assessments, and laboratory evaluations, including blood chemistry, hematology, and urinalysis. […] The study protocol was approved (IRB No.2019AN0538, clinicaltrial.gov; NCT05066516) by the Institutional Review Board of Anam Hospital, Korea University Medical Center (Seoul, Korea), and all procedures were conducted following the principles described in the Declaration of Helsinki and Good Clinical Practice guidelines.
# This study was conducted as a randomized, open-label, single-dose crossover study. All participants were randomly allocated to group A (period 1: individual components (ICs), period 2: FCDP) or group B (period 1: FCDP, period 2: ICs). […] All medications were biopharmaceutical classification system (BCS) III drugs with high solubility and low permeability. […] For FCDP, microcrystalline cellulose and copovidone were used as major excipients.
# On day 1 (the day of each drug administration), serial blood samples were drawn immediately before (0 h) and 0.25, 0.5, 0.75, 1, 1.5, 2, 2.5, 3, 4, 6, 8, 12, 24, 48, and 72 h after each dosing to assess the pharmacokinetics of each drug. The collected samples were centrifuged (at 1977× g, 4 °C) for 15 min, and the extracted plasma samples were stored frozen at −60 °C until they were analyzed.
# For dapagliflozin analysis, 100 µL plasma was added to a glass tube containing an internal standard (10 µL of 1 mg/mL dapagliflozin-d5) and 1 mL methanol. The samples were vigorously vortexed and centrifuged at 10,770× g for 3 min. Next, 100 µL of the upper layer was transferred to a polypropylene tube with 10 µL of internal standard (dapagliflozin-d5, Toronto Research, Toronto, ON, Canada) and 300 µL of acetonitrile. After vigorous vortexing and centrifugation at 2191× g for 1 min, 200 µL of the upper layer was transferred to another polypropylene tube with 200 µL of ammonium acetate (0.1%, w/v). A 20 µL aliquot of the solution was finally injected into the LC–MS/MS system; 0.1% ammonium acetate and methanol were used for the mobile phase. The gradient elution mode was applied (methanol proportion ranging between 57.5% and 90% in 5 min) with a constant flow rate of 0.4 mL/min. Dapagliflozin was quantified using the multiple reaction monitoring (MRM) mode. The produced transitions were m/z 426.47 → 166.84 for dapagliflozin and m/z 431.50 → 166.85 for dapagliflozin-d5. The linear function of dapagliflozin concentration ranged from 1 to 400 ng/mL with regression correlation coefficients of the calibration curves (R) greater than 0.999. The intra-day and inter-day CV values were below 15%. The lower limit of quantification (LLOQ) using this method was 1 ng/mL.
# Linagliptin-^13C-d3 (TLC Pharmaceutical Standards Ltd., Newmarket, ON, Canada) was used as the internal standard, and 100 µL of plasma was added to a glass tube containing the internal standard (10 µL of 1 mg/mL linagliptin-^13C-d3) and 1 mL methanol. The samples were vigorously vortexed and centrifuged at 10,770× g for 3 min. Next, 100 µL of the upper layer was transferred to a polypropylene tube with 10 µL of the internal standard and 400 µL of methanol. After vigorous vortexing and centrifugation at 2191× g for 1 min, 100 µL of the upper layer was transferred to another polypropylene tube containing 300 µL of formic acid in distilled water (0.1%, w/v). A 20 µL aliquot of the solution was finally injected into the LC–MS/MS system; 0.1% ammonium formate in distilled water and acetonitrile was used as the mobile phase. […] Linagliptin was quantified using MRM mode. […] The intra-day and inter-day CV values were <15%. The LLOQ with this method was 0.04 ng/mL. […]
# SGLT2:SGLT1 receptor = conditions: compared with empagliflozin; cited from earlier work
# [4] = tested on: cytochrome P450 3A4 enzyme; conditions: in humans; cited from earlier work
# [5] = IC: co-administered single oral doses of Forxiga 10 mg and Trajenta 5 mg, fasted healthy males, mean ± SD
# [6] = IC: co-administered single oral doses of Forxiga 10 mg and Trajenta 5 mg, fasted healthy males, 0 to 72 h, mean ± SD
# [7] = IC: co-administered single oral doses of Forxiga 10 mg and Trajenta 5 mg, fasted healthy males, median (range)
SMILES,food effect [1],Intra-Participant CV% of AUCinf [3],Intra-Participant CV% of AUClast [3],Intra-Participant CV% of Cmax [3],"AUC(0-inf) ([3]; po, 5 mg)","AUC(0-t) ([3]; po, 5 mg)","Cmax ([3]; po, 5 mg)","Tmax ([3]; po, 5 mg)","half-life ([3]; po, 5 mg)","AUC(0-t) [3, 6]","AUC(0-inf) [3, 5]","Cmax [3, 5]","half-life [3, 5]","Tmax [3, 7]",further results
CCOc1ccc(Cc2cc([C@@H]3O[C@H](CO)[C@@H](O)[C@H](O)[C@H]3O)ccc2Cl)cc1 [dapagliflozin],no possible food effect,7.35%,7.91%,20.49%,516 ± 98.3 ng·h/mL,466 ± 99.3 ng·h/mL,168 ± 42.1 ng/mL,0.75 h,12.8 ± 3.84 h,456 ± 92.8 ng·h/mL,500 ± 93.9 ng·h/mL,161 ± 42 ng/mL,11.3 ± 3.39 h,0.75 h,"half-life (t1/2) [1]: 8.1 to 12.2 h; P-gp inhibitor status (P-gp; in vitro studies): not an inhibitor; P-gp substrate status (P-gp; in vitro studies): weak substrate; fraction metabolized by uridine diphosphate glucuronosyltransferase 1A9 [2]: approximately 65%; CL/F ([3]; FCDP: single oral dose IN-C009 (dapagliflozin 10 mg/linagliptin 5 mg), fasted healthy males, mean ± SD): 20.01 ± 3.6 L/h; CL/F [3, 5]: 20.67 ± 3.89 L/h; SGLT2:SGLT1 receptor selectivity (SGLT2:SGLT1 receptor): lower SGLT2:SGLT1 receptor selectivity"
CC#CCn1c(N2CCC[C@@H](N)C2)nc2c1c(=O)n(Cc1nc(C)c3ccccc3n1)c(=O)n2C [linagliptin],no possible food effect,12.67%,7.96%,27.58%,268 ± 88 ng·h/mL,157 ± 35.9 ng·h/mL,4.2 ± 2.01 ng/mL,1.5 h,54.3 ± 12.3 h,155 ± 30.4 ng·h/mL,266 ± 78.7 ng·h/mL,3.95 ± 1.42 ng/mL,54.9 ± 13.6 h,2.5 h,"oral bioavailability [1]: approximately 30%; kidney excretion ([1]; human, in vivo): 5%; time to reach steady-state level ([1]; therapeutic dose (5 mg)): ≤ 4 days; P-gp inhibition (P-gp; at the therapeutic levels): does not inhibit P-gp; Km of P-gp associated transport (P-gp): 187 µM; substrate for P-glycoprotein (P-gp) (P-gp; in humans): known substrate; substrate for cytochrome P450 3A4 enzyme [4]: known substrate"
N#C[C@@H]1C[C@@H]2C[C@@H]2N1C(=O)[C@@H](N)C12CC3CC(CC(O)(C3)C1)C2 [saxagliptin],–,–,–,–,–,–,–,–,–,–,–,–,–,–,"half-life, metabolite ([1]; metabolite of saxagliptin): 3.1 h"

# — article PMC8952231 (Pharmaceutics, 2022)
